# Data taken from the supplement of paper PMC10307832.
# Columns and labels:
# Test in all cases: relative viability (nuclei count vs DMSO), 5 days (fraction); higher = more cells survive
# Quizartinib + Linsitinib = compound: CC(C)(C)c1cc(NC(=O)Nc2ccc(-c3cn4c(n3)sc3cc(OCCN5CCOCC5)ccc34)cc2)no1 [Quizartinib] + C[C@]1(O)C[C@@H](c2nc(-c3ccc4ccc(-c5ccccc5)nc4c3)c3c(N)nccn32)C1 [Linsitinib] (partner 1 µM)
# Procedure, shortened: (§1)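 Relative viability equals treated-well nuclei counts divided by vehicle-well nuclei counts. Counts came from 4× images of lung cancer cell lines grown in 1536-well plates for 5 days after pin-tool dosing on the day after seeding. Dosing used one drug alone or a fixed anchor-drug dose plus five library-drug doses (not always all listed) in √10 steps, and values are medians of duplicate plates.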
# YM155 + Lapatinib = compound: COCC[n+]1c2c(n(Cc3cnccn3)c1C)C(=O)c1ccccc1C2=O [YM155] + CS(=O)(=O)CCNCc1ccc(-c2ccc3ncnc(Nc4ccc(OCc5cccc(F)c5)c(Cl)c4)c3c2)o1 [Lapatinib] (partner 2 µM)
# Procedure, shortened: as §1
# Quizartinib + Dasatinib = compound: CC(C)(C)c1cc(NC(=O)Nc2ccc(-c3cn4c(n3)sc3cc(OCCN5CCOCC5)ccc34)cc2)no1 [Quizartinib] + Cc1nc(Nc2ncc(C(=O)Nc3c(C)cccc3Cl)s2)cc(N2CCN(CCO)CC2)n1 [Dasatinib] (partner 0.075 µM)
# Procedure, shortened: as §1
# Quizartinib + Pemetrexed = compound: CC(C)(C)c1cc(NC(=O)Nc2ccc(-c3cn4c(n3)sc3cc(OCCN5CCOCC5)ccc34)cc2)no1 [Quizartinib] + Nc1nc2[nH]cc(CCc3ccc(C(=O)N[C@@H](CCC(=O)O)C(=O)O)cc3)c2c(=O)[nH]1 [Pemetrexed] (partner 0.2 µM)
# Procedure, shortened: as §1
Cell Line,relative viability (Quizartinib + Linsitinib; first compound 0.001 µM),relative viability (Quizartinib + Linsitinib; first compound 0.003162 µM),relative viability (Quizartinib + Linsitinib; first compound 0.01 µM),relative viability (Quizartinib + Linsitinib; first compound 0.03162 µM),relative viability (Quizartinib + Linsitinib; first compound 0.1 µM),relative viability (YM155 + Lapatinib; first compound 0.002 µM),relative viability (YM155 + Lapatinib; first compound 0.006325 µM),relative viability (YM155 + Lapatinib; first compound 0.02 µM),relative viability (YM155 + Lapatinib; first compound 0.06325 µM),relative viability (Quizartinib + Dasatinib; first compound 0.001 µM),relative viability (Quizartinib + Dasatinib; first compound 0.003162 µM),relative viability (Quizartinib + Dasatinib; first compound 0.01 µM),relative viability (Quizartinib + Dasatinib; first compound 0.03162 µM),relative viability (Quizartinib + Dasatinib; first compound 0.1 µM),relative viability (Quizartinib + Pemetrexed; first compound 0.001 µM),relative viability (Quizartinib + Pemetrexed; first compound 0.003162 µM),relative viability (Quizartinib + Pemetrexed; first compound 0.03162 µM),relative viability (Quizartinib + Pemetrexed; first compound 0.1 µM),relative viability (Quizartinib + Pemetrexed; first compound 0.01 µM)
HCC-827,0.99,0.924,1.05,0.962,0.994,0.169,0.198,0.177,0.191,0.315,0.396,0.325,0.274,0.281,0.237,0.249,0.24,0.276,–
HOP-62,1.02,0.933,0.822,0.913,1.07,0.831,1.02,0.973,0.961,0.564,0.589,0.638,0.652,0.662,0.3,0.248,0.325,0.323,0.315
IA-LM,0.518,0.657,0.652,0.724,0.679,0.781,0.741,0.652,0.283,–,–,–,–,–,–,–,–,–,–
LC-2-ad,0.77,0.782,0.909,0.76,0.605,0.997,0.92,0.946,0.907,0.48,0.799,0.546,–,0.5,0.275,0.285,0.269,0.233,0.268
LCLC-97TM1,–,0.148,0.185,0.174,0.21,1.04,1.03,1,0.551,0.856,0.735,0.842,0.892,0.738,0.178,0.177,0.184,0.191,0.195
LCLC-103H,0.946,1.05,1.06,1.2,0.882,–,–,–,–,0.461,0.454,0.402,0.557,0.487,0.419,0.485,0.464,0.493,0.484
LK-2,0.479,0.617,0.621,0.523,0.521,0.893,0.966,0.94,0.885,0.31,–,0.313,0.205,0.284,0.262,0.301,0.248,0.336,0.285
LOU-NH91,0.899,0.954,0.996,0.825,1.11,0.828,0.778,0.778,0.788,0.574,0.615,0.553,0.524,0.62,0.394,0.397,0.377,0.436,0.386
LU99A,0.509,0.504,0.628,0.497,0.417,0.965,0.884,0.809,0.589,0.419,0.592,0.523,0.467,0.135,0.206,0.189,0.189,0.183,0.179
LXF-289,0.899,0.944,1.02,0.958,0.92,0.891,0.892,0.905,0.713,0.218,0.21,0.29,0.254,0.29,0.789,0.827,0.83,0.867,1
NCI-H23,–,0.577,0.615,0.555,0.661,0.877,1.09,0.736,0.313,–,0.733,0.696,0.712,0.853,0.6,0.62,0.593,0.635,0.639
NCI-H322M,0.798,1.01,1.02,0.917,0.92,0.601,0.628,0.509,0.585,0.208,0.255,0.27,0.265,0.266,0.6,0.662,0.62,0.703,0.639
NCI-H441,0.357,0.645,0.607,0.51,0.479,–,–,–,–,0.617,0.571,0.765,–,0.771,0.261,0.267,0.255,0.287,0.247
NCI-H522,–,–,–,–,–,–,–,–,–,0.861,0.861,1.11,0.794,0.882,0.948,0.984,0.948,1.01,0.934
NCI-H727,0.164,–,0.387,0.309,0.174,0.614,0.704,1.01,0.953,–,0.377,0.411,0.322,0.318,–,–,–,–,–
NCI-H1299,0.952,0.95,0.987,1.02,1.01,0.949,0.962,0.908,0.176,–,–,–,–,–,–,–,–,–,–
NCI-H1623,–,–,–,–,–,–,–,–,–,0.502,0.627,0.507,0.623,0.598,–,–,–,–,–
NCI-H1650,–,–,–,–,–,0.674,0.787,0.988,0.488,0.283,0.328,0.298,–,0.245,0.342,0.398,–,0.381,0.441
NCI-H1703,0.832,0.456,0.165,0.162,0.231,1.11,0.982,0.452,0.179,–,–,–,–,–,–,–,–,–,–
NCI-H2170,–,–,–,–,–,0.261,0.261,0.291,0.235,0.721,0.422,0.591,0.625,0.497,0.252,0.242,0.293,0.277,0.279
NCI-H2342,–,–,–,–,–,–,–,–,–,0.31,0.314,0.308,0.285,0.316,0.745,0.83,0.746,0.778,0.774
SW 900,–,–,–,–,–,–,–,–,–,0.557,0.294,–,0.563,0.616,0.435,0.488,0.485,0.483,0.422
